Data published in ChEMBL document CHEMBL1201862, “PubChem BioAssay data set” (2004).
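Method: 48-hour compound exposure of cells in 96-well plates, five concentrations, linear interpolation of endpoints. GI50: concentration for 50% inhibition of growth.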 Calls of active or inactive are those of the source. Cut-off read from the data, not from the text of the source: active = GI50 up to about 1.1 µM and inactive = higher.

Experiments:
Test in all cases: DTP human tumour cell line panel, 48 h
A498 = tested on: A498
A549 = tested on: A549
CCRF-CEM = tested on: CCRF-CEM
COLO 205 = tested on: COLO 205
DLD-1 = tested on: DLD-1
DMS-114 = tested on: DMS-114
DMS-273 = tested on: DMS-273
EKVX = tested on: EKVX
HCC 2998 = tested on: HCC 2998
HCT-116 = tested on: HCT-116
HCT-15 = tested on: HCT-15
HL-60 = tested on: HL-60
HOP-18 = tested on: HOP-18
HOP-62 = tested on: HOP-62
HT-29 = tested on: HT-29
IGROV-1 = tested on: IGROV-1
K562 = tested on: K562
KM-20L2 = tested on: KM-20L2
KM12 = tested on: KM12
LOX IMVI = tested on: LOX IMVI
M19-MEL = tested on: M19-MEL
MCF7 = tested on: MCF7
MOLT-4 = tested on: MOLT-4
Malme-3M = tested on: Malme-3M
NCI-H226 = tested on: NCI-H226
NCI-H23 = tested on: NCI-H23
NCI-H460 = tested on: NCI-H460
NCI-H522 = tested on: NCI-H522
NCI/ADR-RES = tested on: NCI/ADR-RES
OVCAR-3 = tested on: OVCAR-3
OVCAR-4 = tested on: OVCAR-4
OVCAR-5 = tested on: OVCAR-5
OVCAR-8 = tested on: OVCAR-8
RPMI-8226 = tested on: RPMI-8226
RXF 393 = tested on: RXF 393
SF-268 = tested on: SF-268
SF-295 = tested on: SF-295
SF-539 = tested on: SF-539
SK-MEL-28 = tested on: SK-MEL-28
SK-MEL-2 = tested on: SK-MEL-2
SK-MEL-5 = tested on: SK-MEL-5
SK-OV-3 = tested on: SK-OV-3
SN12C = tested on: SN12C
SNB-19 = tested on: SNB-19
SNB-75 = tested on: SNB-75
SNB-78 = tested on: SNB-78
SW-620 = tested on: SW-620
U-251 = tested on: U-251
UACC-257 = tested on: UACC-257
UACC-62 = tested on: UACC-62
UO-31 = tested on: UO-31
XF498 = tested on: XF498
CAKI-1 = tested on: CAKI-1
HOP-92 = tested on: HOP-92

## CC(C)(C)OC(=O)NC1CCC(C(C)(C)C)CC1 (stereo unspecified)
A498
  GI50: > 100 µM (inactive)
A549
  GI50: 43.8 µM (inactive)
CCRF-CEM
  GI50: 36.1 µM (inactive)
COLO 205
  GI50: > 65.5 µM (inactive)
DLD-1
  GI50: > 100 µM (inactive)
DMS-114
  GI50: 34 µM (inactive)
DMS-273
  GI50: > 51.2 µM (inactive)
EKVX
  GI50: > 64.1 µM (inactive)
HCC 2998
  GI50: > 87.1 µM (inactive)
HCT-116
  GI50: 43.1 µM (inactive)
HCT-15
  GI50: > 79.6 µM
HL-60
  GI50: 15.2 µM (inactive)
HOP-18
  GI50: > 82.8 µM (inactive)
HOP-62
  GI50: > 91 µM (inactive)
HT-29
  GI50: 22.3 µM (inactive)
IGROV-1
  GI50: > 100 µM (inactive)
K562
  GI50: 51.1 µM (inactive)
KM-20L2
  GI50: 37.9 µM (inactive)
KM12
  GI50: > 81.7 µM (inactive)
LOX IMVI
  GI50: 40.9 µM (inactive)
M19-MEL
  GI50: 31.3 µM (inactive)
MCF7
  GI50: 44.5 µM (inactive)
MOLT-4
  GI50: 23.9 µM (inactive)
Malme-3M
  GI50: 33.2 µM (inactive)
NCI-H226
  GI50: 26.4 µM (inactive)
NCI-H23
  GI50: > 83 µM (inactive)
NCI-H460
  GI50: > 77.3 µM (inactive)
NCI-H522
  GI50: 85.1 µM (inactive)
NCI/ADR-RES
  GI50: 99.1 µM (inactive)
OVCAR-3
  GI50: 58.6 µM (inactive)
OVCAR-4
  GI50: > 74.3 µM (inactive)
OVCAR-5
  GI50: > 100 µM (inactive)
OVCAR-8
  GI50: > 89.7 µM (inactive)
RPMI-8226
  GI50: 27.3 µM (inactive)
RXF 393
  GI50: 31.3 µM (inactive)
SF-268
  GI50: > 100 µM (inactive)
SF-295
  GI50: 26.5 µM (inactive)
SF-539
  GI50: > 100 µM (inactive)
SK-MEL-28
  GI50: > 100 µM (inactive)
SK-MEL-2
  GI50: 23.3 µM (inactive)
SK-MEL-5
  GI50: 27.7 µM (inactive)
SK-OV-3
  GI50: > 100 µM (inactive)
SN12C
  GI50: > 77.8 µM (inactive)
SNB-19
  GI50: 95.7 µM (inactive)
SNB-75
  GI50: 40.7 µM (inactive)
SNB-78
  GI50: > 100 µM (inactive)
SW-620
  GI50: > 64.3 µM (inactive)
U-251
  GI50: 38.4 µM (inactive)
UACC-257
  GI50: 19.5 µM (inactive)
UACC-62
  GI50: 37.4 µM (inactive)
UO-31
  GI50: 59.2 µM (inactive)
XF498
  GI50: > 52.2 µM (inactive)

## CC(=O)OC1C(O)C(C)OC(OC(=O)C2CCC3C(C2)OC2(CC(OC(=O)/C=C/c4ccccc4)C(C)CO2)C32CO2)C1OC1OC(C)C(O)C(O)C1O (stereo unspecified)
A498
  GI50: 0.0702 µM (active)
A549
  GI50: 0.118 µM (active)
CAKI-1
  GI50: 2.08 µM (inactive)
CCRF-CEM
  GI50: 0.0342 µM (active)
COLO 205
  GI50: 0.0341 µM (active)
DLD-1
  GI50: 0.335 µM (active)
DMS-114
  GI50: 0.0371 µM (active)
DMS-273
  GI50: 0.0416 µM (active)
EKVX
  GI50: 0.0417 µM (active)
HCC 2998
  GI50: 0.0373 µM (active)
HCT-116
  GI50: 0.038 µM (active)
HCT-15
  GI50: 3.96 µM
HL-60
  GI50: 0.0336 µM (active)
HOP-18
  GI50: 0.113 µM (active)
HOP-62
  GI50: 0.0794 µM (active)
HOP-92
  GI50: 0.0325 µM (active)
HT-29
  GI50: 0.0419 µM (active)
IGROV-1
  GI50: 0.0378 µM (active)
K562
  GI50: 0.0383 µM (active)
KM-20L2
  GI50: 0.0425 µM (active)
KM12
  GI50: 0.0371 µM (active)
LOX IMVI
  GI50: 0.115 µM (active)
M19-MEL
  GI50: 0.0332 µM (active)
MCF7
  GI50: 0.0325 µM (active)
MOLT-4
  GI50: 0.0337 µM (active)
Malme-3M
  GI50: 0.0378 µM (active)
NCI-H226
  GI50: 0.0435 µM (active)
NCI-H23
  GI50: 0.0467 µM (active)
NCI-H460
  GI50: 0.0448 µM (active)
NCI-H522
  GI50: 0.0325 µM (active)
NCI/ADR-RES
  GI50: 21.7 µM (inactive)
OVCAR-3
  GI50: 0.0578 µM (active)
OVCAR-4
  GI50: 0.0325 µM (active)
OVCAR-5
  GI50: 0.091 µM (active)
OVCAR-8
  GI50: 0.0789 µM (active)
RPMI-8226
  GI50: 0.0361 µM (active)
RXF 393
  GI50: 0.0644 µM (active)
SF-268
  GI50: 0.0362 µM (active)
SF-295
  GI50: 0.0776 µM (active)
SF-539
  GI50: 0.0448 µM (active)
SK-MEL-28
  GI50: 0.0355 µM (active)
SK-MEL-2
  GI50: 0.0325 µM (active)
SK-MEL-5
  GI50: 0.0332 µM (active)
SK-OV-3
  GI50: 0.0586 µM (active)
SN12C
  GI50: 0.0514 µM (active)
SNB-19
  GI50: 0.0399 µM (active)
SNB-75
  GI50: 0.0468 µM (active)
SNB-78
  GI50: 0.0352 µM (active)
SW-620
  GI50: 0.0504 µM (active)
U-251
  GI50: 0.04 µM (active)
UACC-257
  GI50: 0.0325 µM (active)
UACC-62
  GI50: 0.039 µM (active)
UO-31
  GI50: 7.78 µM (inactive)
XF498
  GI50: 0.0504 µM (active)
